Experimental data published in US7429460B2, “Methods of screening for inhibitors of phospholipid synthesis related to glycolipid-storage diseases” (Yeda Research and Development Co., Ltd., priority 2003, dated 2008).

Assays:
rat hippocampal neurons = assay: [14C]PC degradation and acetolysis of [14C]PC in neurons; assay type: cell-based; conditions: CBE-treated neurons
Description: In some cases, acetolysis was performed to determine the amount of [^14C]-radioactivity that remained in the [^14C]methyl choline head group moiety of [^14C]PC after 48 h labeling with [^14C]methyl choline. [^14C]PC was removed from TLC plates by scraping, eluted from the silica using chloroform/methanol/acetic acid/water (50:39:1:10, v/v/v/v), and subjected to acetolysis. Briefly, 2 ml of acetic anhydride/acetic acid (2:3, v/v) was added to the tubes containing [^14C]PC, the mixture heated at 140° C. for 16 h, 200 μl of water added to each tube, dried under N2, and separated into aqueous and organic phases. […] [^14C]-Lipids and the [^14C]-head group polar moieties were analyzed and quantified as above.
Since metabolic labeling with [^14C]methyl choline was performed for up to 48 h (due to the relatively low amount of neurons available), we analyzed whether the increase in [^14C]methyl choline levels was due to changes in the rate of [^14C]PC synthesis or in the rate of [^14C]PC degradation. Neurons were incubated with [^14C]methyl choline to metabolically label [^14C]PC, and the rate of [^14C]PC degradation measured. No difference in the rate of degradation between control and CBE-treated neurons was detected (FIG. 3). […]

[1] = test system: CTP:phosphocholine cytidylyltransferase (CCT); assay: CCT assay in hippocampal neuron homogenates with substance added to the assay mixture; assay type: biochemical, rat; conditions: added directly to the assay mixture
Description: Neurons from individual cover slips were washed twice with ice-cold phosphate-buffered saline, and cells removed by scraping into 300 μl of buffer containing 50 mM imidazole, 2 mM EDTA, 150 mM KCl, 6 mM ADP, 0.2 mM phenylmethylsulfonylfluoride, 1 μg/ml pepstatin and 1 μg/ml leupeptin. After brief sonication, an aliquot was removed for DNA determination and 100 μl was used for the CCT assay.
CCT was assayed as described (Weinhold P A and Feldman D A. 1992. Choline-phosphate cytidylyltransferase. Methods Enzymol. 209, 248-258), with some minor modifications. The assay was performed in a final volume of 200 μl containing 1.6 mM phosphorylcholine/0.25 μCi [^14C]methyl phosphorylcholine, 3 mM CTP, 12 mM magnesium acetate, and DOPC liposomes with or without oleic acid and GicCer or GalCer, as indicated in the figure legends. Liposomes were prepared by sonicating resuspended lipids in the assay buffer at room temperature for 3 min using a sonicator (Sonics & Materials Inc., Newtown, Conn.) fitted with a micro-tip probe set to 750 W output, using 25% of the maximal amplitude and with pulsations of 9.0 sec every 9.2 sec, which gave a translucent liposome preparation with no precipitates. The final concentration of DOPC and oleic acid in the liposomes was 500 μM each. The reaction was terminated after 25 min at 37° C. by addition of 200 μl of 150 mM phosphorylcholine in 10% trichloroacetic acid. CDP-choline was recovered by addition of 2 ml of 6% charcoal in water (w/v). After 30 min at room temperature the charcoal suspension was washed 4 times with water and centrifuged at 1,000 gav for 10 min. The aqueous supernatants were removed and CDP-choline was eluted from the charcoal with 3 washes of water/ethanol/28% NH4OH (116:188:11, v/v/v). Eluates were pooled and evaporated to dryness under N2. Phosphorylcholine and CDP-choline were added to the tubes and the samples separated by TLC using 0.9% NaCl/methanol/28% NE4OH (50:70:5, v/v/v) as the developing solvent. Metabolites were identified by iodine, and the CDP-choline spot was scraped into scintillation vials for scintillation counting.
CCT activity was assayed in homogenates prepared from 8-day-old normal rat hippocampal neurons as described herein above. The reaction mixture comprised 0.5 mM DOPC/0.5 mM oleic acid/0.3 mM sphingolipid or lyso-sphingolipid. CCT activity with each sphingolipid or lyso-sphingolipid was measured twice. Basal CCT activity differed by ˜20% between the two experiments; however, the extent of activation or inhibition of CT activity was similar for each sphingolipid and lyso-sphingolipid.

CCT α and β1/2 RNA = assay: RT-PCR of CCT isoforms in treated neurons; assay type: cell-based, rat; conditions: 500 μM CBE, up to 8-days
Description: Total cellular RNA was prepared from ˜0.5×10^6 neurons grown on 24 mm cover slips using the RNeasy Mini Kit (Qiagen, Hilden, Germany) according to manufacturers'instructions. The reverse transcription-polymerase chain reaction (RT-PCR) was performed using the QIAGEN OneStep RT-PCR kit (Qiagen, Hilden, Germany). Briefly, each reaction contained 10 ng of total RNA, 0.6 μM of primers, 1.6 mM deoxynucleotide triphosphates (0.4 mM each) and 1 μl QIAGEN OneStep RT-PCR Enzyme Mix in the supplied buffer in a total volume of 25 μl. Primers (CCT: 5′-ACTTTAGTAA GCCCTATGTC (SEQ ID NO. 7) and 5′-[…] (SEQ ID NO. 8), 34 cycles, annealing temperatures 53° C.; CCT: 5′-[…] (SEQ ID NO. 9) and 5′-[…] (SEQ ID NO. 10), 30 cycles, annealing temperature 51° C.; glyceraldehyde -3-phosphate dehydrogenase: 5′-TTAGCACCCCTGGCCAAGG (SEQ ID NO. 11) and 5′- ATTACTCCTT GGAGGCCATG (SEQ ID NO. 12), 23 cycles, annealing temperature 50° C.) were designed using the MacMolly Tetra program (Sofigene, Berlin, Germany) and were synthesized by the Weizmann Institute Oligonucleotide and Peptide Synthesis facility. […] PCR products, 9 μl each, were analyzed by electrophoresis in 1.5 % agarose gels.

In the case of `O[C@H]1[C@H](O)[C@@H](O)[C@@H]2O[C@@H]2[C@@H]1O` (racemic) [CBE, conduritol-B-epoxide], the “rate of [14C]PC degradation versus control” value (rat hippocampal neurons) is reported as “No difference”, the “effect on CCT activity when added directly to the assay mixture” value [1] is reported as “had no effect” and the “CCT RNA levels (RT-PCR)” value (CCT α and β1/2 RNA) is reported as “No changes”.
